| melting point [°C] | SMILES |
| --- | --- |
| 137 to 140 | O=C(Nc1cccc(C(F)(F)F)c1F)c1cccnc1NCc1ccncc1 [Example 19, 2-[(4-Pyridyl)methylamino]-N-[2-fluoro-3-(trifluoromethyl)phenyl]-3-pyridinecarboxamide] |
| 196 | O=C(Nc1cc(F)cc(C(F)(F)F)c1)c1cccnc1NCc1ccncc1 [Example 7, 2-[(4-Pyridyl)methylamino]-N-[3-fluoro-5-(trifluoromethyl)phenyl]-3-pyridinecarboxamide] |
| 211 to 218 | CC#Cc1ccc(NC(=O)c2cccnc2NCc2ccc(=O)[nH]c2)cc1C(F)(F)F [Example 32, 2-[(Pyridin-2(1H)-on-5-yl)methyl]amino-N-[4-propynyl-3-(trifluoromethyl)phenyl]-3-pyridinecarboxamide] |
| 194 to 196 | O=C(Nc1ccc(C(F)(F)F)c(C(F)(F)F)c1)c1cccnc1NCc1ccncc1 [Example 6, 2-[(4-Pyridyl)methylamino]-N-[3,4-bis(trifluoromethyl)phenyl]-3-pyridinecarboxamide] |
| 216 to 221 | CC#Cc1ccc(NC(=O)c2cccnc2NCc2ccncc2)cc1 [Example 12, 2-[(4-Pyridyl)methylamino]-N-[4-(1-propynyl)phenyl]-3-pyridinecarboxamide] |
| 225 to 230 | O=C(Nc1ccc2[nH]ncc2c1)c1cccnc1NCc1ccncc1 [Example 13, 2-[(4-Pyridyl)methylamino]-N-(5-indazolyl)-3-pyridinecarboxamide] |
| 147 to 149 | CCCc1ccc(NC(=O)c2cccnc2NCc2ccncc2)cc1C(F)(F)F [Example 40, 2-[(4-Pyridyl)methyl]amino-N-[4-(n-propyl)-3-(trifluoromethyl)phenyl]-3-pyridinecarboxamide] |
| 146 to 147 | Cc1c(NC(=O)c2cccnc2NCc2ccncc2)cccc1C(F)(F)F [Example 21, 2-[(4-Pyridyl)methylamino]-N-[2-methyl-3-(trifluoromethyl)phenyl]-3-pyridinecarboxamide] |
| 213 to 217 | CC#Cc1ccc(NC(=O)c2cccnc2NCc2ccncc2)cc1C(F)(F)F [Example 31, 2-[(4-Pyridyl)methylamino]-N-[4-propynyl-3-(trifluoromethyl)phenyl]3-pyridinecarboxamide] |
| 164 to 165 | O=C(Nc1ccc(Br)c(C(F)(F)F)c1)c1cccnc1NCc1ccncc1 [Example 20, 2-[(4-Pyridyl)methylamino]-N-[4-bromo-3-(trifluoromethyl)phenyl]-3-pyridinecarboxamide] |
| 155 to 156 | Cc1ccc(C(F)(F)F)cc1NC(=O)c1cccnc1NCc1ccncc1 [Example 22, 2-[(4-Pyridyl)methylamino]-N-[2-methyl-5-(trifluoromethyl)phenyl]-3-pyridinecarboxamide] |

Second part, the molecule before the results:

| SMILES | melting point [°C] |
| --- | --- |
| O=C(Nc1cccc(C(F)(F)F)c1F)c1cccnc1NCc1ccc(=O)[nH]c1 [Example 36, 2-[(Pyridin-2(1H)-on-5-yl)methyl]amino-N-[2-fluoro-3-(trifluoromethyl)phenyl]-3-pyridinecarboxamide] | 219 to 222 |
| CCCCCc1ccc(NC(=O)c2cccnc2NCc2ccncc2)cc1 [Example 11, 2-[(4-Pyridyl)methylamino]-N-[4-(n-pentyl)phenyl]-3-pyridinecarboxamide] | 106 to 107 |
| CC(C)(C)[C@H]1CC[C@@H](NC(=O)c2cccnc2NCc2ccncc2)CC1 [Example 23, 2-[(4-Pyridyl)methylamino]-N-(cis-4-tert-butyl-cyclohexyl)-3-pyridinecarboxamide] | 103 to 106 |
| O=C(Nc1cccc(C(F)(F)F)c1)c1cccnc1NCc1cccc(O)c1 [Example 34, 2-[(3-Hydroxyphenyl)methyl]amino-N-[3-(trifluoromethyl)phenyl]-3-pyridinecarboxamide] | 143 to 146 |
| COc1ccc(CNc2ncccc2C(=O)Nc2cccc(C(F)(F)F)c2)cn1.Cl.Cl | 185 |
| CC(C)(C)[C@H]1CC[C@H](NC(=O)c2cccnc2NCc2ccncc2)CC1 [Example 8, 2-[(4-Pyridyl)methylamino]-N-(trans-4-tert-butyl-cyclohexyl)-3-pyridinecarboxamide] | 165 to 167 |
| CCCc1ccc(NC(=O)c2cccnc2NCc2ccc(=O)[nH]c2)cc1C(F)(F)F [Example 38, 2-[(Pyridin-2(1H)-on-5-yl)methyl]amino-N-[4-propyl-3-(trifluoromethyl)phenyl]-3-pyridinecarboxamide] | 220 to 224 |
| CCCc1ccc(NC(=O)c2cccnc2NCc2ccncc2)cc1 [Example 9, 2-[(4-Pyridyl)methylamino]-N-[4-(n-propyl)phenyl]-3-pyridinecarboxamide] | 147 to 149 |
| O=C(Nc1cc2ccccc2cn1)c1cccnc1NCc1ccncc1 [Example 14, 2-[(4-Pyridyl)methylamino]-N-(3-isoquinolinyl)-3-pyridinecarboxamide] | 191 to 195 |
| COc1ccc(CNc2ncccc2C(=O)Nc2ccc(Br)c(C(F)(F)F)c2)cn1 [Example 24, 2-[(6-Methoxypyrid-3-yl)methylamino]-N-[4-bromo-3-(trifluoromethyl)phenyl]-3-pyridinecarboxamide] | 123 to 125 |
| CCCCc1ccc(NC(=O)c2cccnc2NCc2ccncc2)cc1 [Example 10, 2-[(4-Pyridyl)methylamino]-N-[4-(n-butyl)phenyl)3-pyridinecarboxamide] | 107 to 108 |

— patent US6624174B2, “2-amino-nicotinamide derivatives and their use as VEGF-receptor tyrosine kinase inhibitors” (Novartis AG, priority 2000, dated 2003)
